From patent US9035056B2, “Pyrido[4,3-b]indole and pyrido[3,4-b]indole derivatives and methods of use” (Medivation Technologies, Inc., priority 2011, dated 2015)

What was measured:
[1] = tested on: New Zealand White rabbits; conditions: conscious rabbits, intravenous, positive control, before the blood pressure reversed back
Protocol: Four adult New Zealand White rabbits of both sexes are chosen for these studies. The experiments are conducted in accordance with the Australian code of Practice for the Care and use of Animals for Scientific Purposes and approval is sought from the Animal Experimental Committee of Alfred Hospital, Baker IDI, Melbourne, Australia. The conscious rabbits are implanted with an intravenous catheter in marginal ear vein or by centrally by […] catheter interfaced to a pressure transducer connected to a suitable recorder. To unveil peripheral effects of test compound, two sets of acute studies are conducted in rabbits. In the first set of studies, test compound is dosed to rabbit intravenously for a dose-response study with cumulative doses starting 0 (Ringer's Lock solution as a vehicle), 0.1, 0.3, 1, 3.2 and 10 mg/kg where each dose is tested on a separate day. A single intravenous bolus dose at 3 mg/kg is given and a time-course study is conducted in the second set of studies. Systolic, […], mean and […] blood pressures are recorded in both the studies.

[2] = biological target: T1, human recombinant serotonin (5-Hydroxytryptamine) 5-HT2A receptor (Homo sapiens, UniProt P28223); assay: Serotonin 5-HT2A radioligand binding ([3H]Ketanserin); conditions: 0.1 μM compound; read-out: Percentage inhibition of ligand binding, Serotonin 5-HT2A
T1 construct: expressed in transfected cells; host or cells: CHO-K1
Protocol: To evaluate in radioligand binding assays the activity of compounds of the invention, human recombinant serotonin (5-Hydroxytryptamine) 5-HT2A receptor expressed in Chinese hamster ovary (CHO) K1 cells (Bonhaus, D. et al, Br. J. Pharmacol. 115:622, 1995; Saucier, C. et al, J. Neurochem. 68:1998, 1997) in a 50 mM Tris-HCl buffer, pH 7.4, was used. Compounds of the invention were incubated with 0.5 nM [^3H]Ketanserin for 60 min at 25° C. Non-specific binding was estimated in the presence of 1 μM Mianserin. Receptor proteins were filtered and washed, the filters were then counted to determine [^3H]Ketanserin specifically bound. Compounds were screened at 1 μM or lower, using 1% DMSO as vehicle. Biochemical assay results are presented as the percent inhibition of specific binding in Table 5.

[3] = biological target: T2, human recombinant serotonin (5-Hydroxytryptamine) 5-HT6 receptor (Homo sapiens, UniProt P50406); assay: Serotonin 5-HT6 radioligand binding ([3H]LSD); conditions: 0.1 μM compound; read-out: Percentage inhibition of ligand binding, Serotonin 5-HT6
T2 construct: expressed in transfected cells; host or cells: HeLa
Protocol: To evaluate in radioligand binding assays the activity of compounds of the invention, human recombinant serotonin (5-Hydroxytryptamine) 5-HT6 receptor expressed in human HeLa cells (Monsma, F. Jr. et al, Mol. Pharmacol. 43:320, 1993) in a modified Tris-HCl buffer (50 mM Tris-HCl, pH 7.4, 150 mM NaCl, 2 mM Ascorbic Acid, 0.001% BSA) was used. Compounds of the invention were incubated with 1.5 nM [3H]Lysergic acid diethylamide (LSD) for 120 min at 37° C. Non-specific binding was estimated in the presence of 5 μM Serotonin (5-HT). Receptor proteins were filtered and washed, the filters were then counted to determine [3H]LSD specifically bound. Compounds were screened at 1 μM or lower, using 1% DMSO as vehicle. Biochemical assay results are presented as the percent inhibition of specific binding in Table 5.

[4] = biological target: T3, human recombinant histamine H1 receptor (Homo sapiens, UniProt P35367); assay: Histamine H1 radioligand binding ([3H]Pyrilamine); conditions: 1 μM compound; read-out: Binding data (Percentage inhibition) Histamine H1 (1 μM)
T3 construct: expressed in transfected cells; host or cells: CHO-K1
Protocol: To evaluate in radioligand binding assays the activity of compounds of the invention, human recombinant histamine H1 receptor expressed in Chinese hamster ovary (CHO) K1 cells (De Backer, M. et al, Biochem. Biophys. Res. Comm. 197(3):1601, 1993) in a modified Tris-HCl buffer (50 mM Tris-HCl, pH 7.4, 2 mM MgCl2, 100 mM NaCl, 250 mM Sucrose) was used. Compounds of the invention were incubated with 1.2 nM [^3H]Pyrilamine for 180 min at 25° C. Non-specific binding was estimated in the presence of 1 μM Pyrilamine. Receptor proteins were filtered and washed, the filters were then counted to determine [^3H]Pyrilamine specifically bound. Compounds were screened at 1 μM or lower, using 1% DMSO as vehicle. Biochemical assay results are presented as the percent inhibition of specific binding in Table 3.

[5] = biological target: T4, human recombinant serotonin (5-Hydroxytryptamine) 5-HT2C receptor (Homo sapiens, UniProt P28335); assay: Serotonin 5-HT2C radioligand binding ([3H]Mesulergine); conditions: 0.1 μM compound; read-out: Percentage inhibition of ligand binding, Serotonin 5-HT2C
T4 construct: expressed in transfected cells; host or cells: CHO-K1
T4 sequence (P28335 33-458): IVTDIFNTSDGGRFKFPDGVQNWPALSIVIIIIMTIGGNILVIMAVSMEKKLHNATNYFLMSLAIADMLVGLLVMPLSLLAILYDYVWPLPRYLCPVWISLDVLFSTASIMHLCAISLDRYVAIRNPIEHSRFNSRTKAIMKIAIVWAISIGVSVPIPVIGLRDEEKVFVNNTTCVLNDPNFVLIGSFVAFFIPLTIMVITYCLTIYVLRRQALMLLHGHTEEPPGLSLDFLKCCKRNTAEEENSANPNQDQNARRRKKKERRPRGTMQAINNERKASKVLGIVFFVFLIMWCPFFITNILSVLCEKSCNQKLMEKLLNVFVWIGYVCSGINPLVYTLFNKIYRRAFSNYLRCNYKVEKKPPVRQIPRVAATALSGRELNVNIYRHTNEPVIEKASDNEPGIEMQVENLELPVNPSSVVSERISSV
Protocol: To evaluate in radioligand binding assays the activity of compounds of the invention, human recombinant serotonin (5-Hydroxytryptamine) 5-HT2C receptor expressed in Chinese hamster ovary (CHO) K1 cells (Wolf, W. et al, J. Neurochem. 69:1449, 1997) in a modified Tris-HCl buffer (50 mM Tris-HCl, pH 7.4, 0.1% Ascorbic Acid, 10 μM Pargyline) was used. Compounds of the invention were incubated with 1 nM [^3H]Mesulergine for 60 min at 25° C. Non-specific binding was estimated in the presence of 1 μM Mianserin. Receptor proteins were filtered and washed, the filters were then counted to determine [^3H]Mesulergine specifically bound. Compounds were screened at 1 μM or lower, using 1% DMSO as vehicle. Biochemical assay results are presented as the percent inhibition of specific binding in Table 5.

[6] = biological target: T5, human recombinant serotonin (5-Hydroxytryptamine) 5-HT7 receptor (Homo sapiens, UniProt P34969); assay: Serotonin 5-HT7 radioligand binding ([3H]LSD); conditions: 0.1 μM compound; read-out: Percentage inhibition of ligand binding, Serotonin 5-HT7
T5 construct: expressed in transfected cells; host or cells: CHO
Protocol: To evaluate in radioligand binding assays the activity of compounds of the invention, human recombinant serotonin (5-Hydroxytryptamine) 5-HT7 receptor expressed in Chinese hamster ovary (CHO) cells (Roth, B. et al, J. Pharmacol. Exp. Ther. 268:1403, 1994; Shen, Y. et al, J. Biol. Chem. 268:18200, 1993) in a modified Tris-HCl buffer (50 mM Tris-HCl, pH 7.4, 10 mM MgCl2, 0.5 mM EDTA) was used. Compounds of invention were incubated with 5.5 nM [^3H] Lysergic acid diethylamide (LSD) for 2 h at 25° C. Non-specific binding was estimated in the presence of 10 μM Serotonin (5-HT). Receptor proteins were filtered and washed, the filters were then counted to determine [^3H]LSD specifically bound. Compounds were screened at 1 μM or lower, using 1% DMSO as vehicle. Biochemical assay results are presented as the percent inhibition of specific binding in Table 5.

[7] = biological target: T6, human recombinant dopamine D2L receptor (Homo sapiens, UniProt P14416); assay: Dopamine D2L radioligand binding ([3H]Spiperone); conditions: 1 μM compound; read-out: Percentage inhibition of ligand binding, Dopamine D2L
T6 construct: expressed in transfected cells; host or cells: CHO
Protocol: To evaluate in radioligand binding assays the activity of compounds of the invention, human recombinant dopamine D2L receptor expressed in Chinese hamster ovary (CHO) cells (Grandy, D. et al, Proc. Natl. Acad. Sci. USA. 86:9762, 1989; Hayes, G. et al, Mol. Endocrinol. 6:920, 1992) in a modified Tris-HCl buffer (50 mM Tris-HCl, pH 7.4, 1.4 mM Ascorbic Acid, 0.001% BSA, 150 mM NaCl) was used. Compounds of the invention were incubated with 0.16 nM [^3H]Spiperone for 120 min at 25° C. Non-specific binding was estimated in the presence of 10 μM Haloperidol. Receptor proteins were filtered and washed, the filters were then counted to determine [^3H]Spiperone specifically bound. Compounds were screened at 1 μM or lower, using 1% DMSO as vehicle. Biochemical assay results are presented as the percent inhibition of specific binding in Table 4.

T3 sequence (P35367 whole entry): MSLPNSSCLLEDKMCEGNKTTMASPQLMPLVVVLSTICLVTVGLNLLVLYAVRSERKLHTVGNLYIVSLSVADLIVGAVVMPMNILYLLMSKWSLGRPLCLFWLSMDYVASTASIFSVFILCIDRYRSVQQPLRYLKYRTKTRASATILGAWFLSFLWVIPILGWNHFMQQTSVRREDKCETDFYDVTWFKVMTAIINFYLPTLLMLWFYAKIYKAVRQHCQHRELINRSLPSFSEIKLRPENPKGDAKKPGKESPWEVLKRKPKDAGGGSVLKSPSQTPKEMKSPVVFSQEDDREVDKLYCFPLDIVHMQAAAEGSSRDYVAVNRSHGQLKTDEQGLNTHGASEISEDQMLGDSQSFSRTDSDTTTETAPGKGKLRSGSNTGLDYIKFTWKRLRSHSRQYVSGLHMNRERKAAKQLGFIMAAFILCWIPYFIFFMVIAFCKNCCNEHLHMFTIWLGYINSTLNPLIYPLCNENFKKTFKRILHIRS
T5 sequence (P34969 whole entry): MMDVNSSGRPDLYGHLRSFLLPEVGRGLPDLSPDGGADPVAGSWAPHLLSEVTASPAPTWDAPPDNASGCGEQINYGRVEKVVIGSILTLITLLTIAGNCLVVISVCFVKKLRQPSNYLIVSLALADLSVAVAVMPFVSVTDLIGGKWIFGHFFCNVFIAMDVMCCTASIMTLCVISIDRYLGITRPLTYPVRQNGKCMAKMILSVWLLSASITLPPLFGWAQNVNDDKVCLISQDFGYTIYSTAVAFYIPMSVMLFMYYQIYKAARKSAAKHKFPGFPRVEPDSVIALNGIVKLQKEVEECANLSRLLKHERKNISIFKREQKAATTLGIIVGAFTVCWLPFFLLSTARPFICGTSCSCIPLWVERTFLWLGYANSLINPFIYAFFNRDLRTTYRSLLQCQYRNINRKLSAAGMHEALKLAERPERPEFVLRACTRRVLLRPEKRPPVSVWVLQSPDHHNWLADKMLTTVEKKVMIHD
T6 sequence (P14416 whole entry): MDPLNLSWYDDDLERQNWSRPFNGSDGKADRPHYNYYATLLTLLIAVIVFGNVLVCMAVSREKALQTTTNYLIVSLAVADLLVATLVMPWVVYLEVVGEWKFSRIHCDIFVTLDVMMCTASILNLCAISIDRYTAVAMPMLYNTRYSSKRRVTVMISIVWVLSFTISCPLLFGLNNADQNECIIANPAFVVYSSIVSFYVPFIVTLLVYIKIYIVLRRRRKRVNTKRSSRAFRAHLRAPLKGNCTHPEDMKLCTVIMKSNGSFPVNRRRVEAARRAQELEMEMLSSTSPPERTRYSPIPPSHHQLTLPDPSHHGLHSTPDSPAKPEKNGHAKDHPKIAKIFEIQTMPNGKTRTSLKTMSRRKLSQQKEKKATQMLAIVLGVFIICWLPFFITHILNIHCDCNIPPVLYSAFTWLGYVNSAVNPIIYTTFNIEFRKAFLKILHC
T2 sequence (P50406 whole entry): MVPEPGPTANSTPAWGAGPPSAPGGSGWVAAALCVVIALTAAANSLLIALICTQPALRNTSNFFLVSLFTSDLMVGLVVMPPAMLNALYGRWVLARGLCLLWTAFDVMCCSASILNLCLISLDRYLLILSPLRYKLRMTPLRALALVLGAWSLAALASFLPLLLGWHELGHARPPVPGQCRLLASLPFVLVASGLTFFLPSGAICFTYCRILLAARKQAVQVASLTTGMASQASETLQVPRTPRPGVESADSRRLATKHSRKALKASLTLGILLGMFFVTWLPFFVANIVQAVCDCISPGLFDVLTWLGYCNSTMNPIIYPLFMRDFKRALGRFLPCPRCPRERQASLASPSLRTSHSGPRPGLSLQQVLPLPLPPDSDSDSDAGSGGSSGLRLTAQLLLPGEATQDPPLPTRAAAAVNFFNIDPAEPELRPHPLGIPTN
T1 sequence (P28223 whole entry): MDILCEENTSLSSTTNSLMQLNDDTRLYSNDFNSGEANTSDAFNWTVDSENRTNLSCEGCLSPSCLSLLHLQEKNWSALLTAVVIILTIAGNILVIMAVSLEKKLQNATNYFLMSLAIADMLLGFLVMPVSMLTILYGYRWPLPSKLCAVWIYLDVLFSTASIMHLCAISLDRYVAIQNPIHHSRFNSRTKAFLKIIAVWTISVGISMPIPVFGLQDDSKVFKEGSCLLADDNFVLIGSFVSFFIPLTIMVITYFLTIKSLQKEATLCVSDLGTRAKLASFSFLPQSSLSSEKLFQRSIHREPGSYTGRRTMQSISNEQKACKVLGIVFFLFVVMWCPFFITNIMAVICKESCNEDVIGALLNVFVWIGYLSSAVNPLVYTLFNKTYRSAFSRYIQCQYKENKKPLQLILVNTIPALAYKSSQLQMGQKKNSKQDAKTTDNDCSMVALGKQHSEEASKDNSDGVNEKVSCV

| Structure (SMILES) | maximum drop of arterial blood pressure [1] | inhibition at 0.1 µM [2] | inhibition at 0.1 µM [3] | inhibition at 1 µM [4] | inhibition at 0.1 µM [5] | inhibition at 0.1 µM [6] | inhibition at 1 µM [7] |
| --- | --- | --- | --- | --- | --- | --- | --- |
| Clc1cccc(Cl)c1N=C1NCCN1 [Clonidine] | −6 mmHg | – | – | – | – | – | – |
| CN1CCc2c(c3cc(Cl)ccc3n2C=C2CCCCC2)C1 [i-1] | – | 94% | 91% | 100% | 98% | 81% | 93% |
